Measured values: the supplement of paper PMC10307832

Legend:
Test in all cases: relative viability (nuclei count vs DMSO), 5 days (fraction); higher = more cells survive
HCC-15 = system: HCC-15
Method in brief: (§1)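 Values are medians from duplicate plates. Each reflects relative viability, defined as the nuclei count of treated wells over that of vehicle wells. Lung cancer cell lines in 1536-well plates were pin-tool dosed one day after seeding with one drug alone or with a fixed anchor-drug dose plus five library-drug doses (not always all listed) in √10 steps, then fixed, stained and imaged at 4× after 5 days.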

NCI-H1915 = system: NCI-H1915
Method in brief: as §1

NCI-H2126 = system: NCI-H2126
Method in brief: as §1

EMC-BAC-2 = system: EMC-BAC-2
Method in brief: as §1

EKVX = system: EKVX
Method in brief: as §1

HCC-827 = system: HCC-827
Method in brief: as §1

LU99A = system: LU99A
Method in brief: as §1

SK-LU-1 = system: SK-LU-1
Method in brief: as §1

LCLC-97TM1 = system: LCLC-97TM1
Method in brief: as §1

NCI-H661 = system: NCI-H661
Method in brief: as §1

NCI-H1944 = system: NCI-H1944
Method in brief: as §1

ChaGo-K-1 = system: ChaGo-K-1
Method in brief: as §1

H3255 = system: H3255
Method in brief: as §1

NCI-H441 = system: NCI-H441
Method in brief: as §1

NCI-H1792 = system: NCI-H1792
Method in brief: as §1

NCI-H460 = system: NCI-H460
Method in brief: as §1

LC-2-ad = system: LC-2-ad
Method in brief: as §1

NCI-H23 = system: NCI-H23
Method in brief: as §1

NCI-H1437 = system: NCI-H1437
Method in brief: as §1

PC-3 [JPC-3] = system: PC-3 [JPC-3]
Method in brief: as §1

HARA = system: HARA
Method in brief: as §1

NCI-H322M = system: NCI-H322M
Method in brief: as §1

Compound: O=C(O)CCCCC(CCSCc1ccccc1)SCc1ccccc1 (centres undefined) [CPI-613] + C[C@@H](Oc1cc(-c2cnn(C3CCNCC3)c2)cnc1N)c1c(Cl)ccc(F)c1Cl [Crizotinib] (partner 1 µM)
- relative viability (HCC-15; first compound 5 µM): 0.772
- relative viability (HCC-15; first compound 15.81 µM): 0.746
- relative viability (HCC-15; first compound 50 µM): 0.776
- relative viability (HCC-15; first compound 158.11 µM): 0.367
- relative viability (HCC-15; first compound 500 µM): 0.326
- relative viability (NCI-H1915; first compound 5 µM): 0.895
- relative viability (NCI-H1915; first compound 15.81 µM): 0.93
- relative viability (NCI-H1915; first compound 50 µM): 0.809
- relative viability (NCI-H1915; first compound 158.11 µM): 0.678
- relative viability (NCI-H1915; first compound 500 µM): 0.446
- relative viability (NCI-H2126; first compound 5 µM): 1.01
- relative viability (NCI-H2126; first compound 15.81 µM): 0.999
- relative viability (NCI-H2126; first compound 50 µM): 0.942
- relative viability (NCI-H2126; first compound 158.11 µM): 0.706
- relative viability (NCI-H2126; first compound 500 µM): 0.23
- relative viability (EMC-BAC-2; first compound 5 µM): 0.753
- relative viability (EMC-BAC-2; first compound 15.81 µM): 0.708
- relative viability (EMC-BAC-2; first compound 50 µM): 0.83
- relative viability (EMC-BAC-2; first compound 158.11 µM): 0.494
- relative viability (EMC-BAC-2; first compound 500 µM): 0.267
- relative viability (EKVX; first compound 5 µM): 0.885
- relative viability (EKVX; first compound 15.81 µM): 0.817
- relative viability (EKVX; first compound 50 µM): 0.891
- relative viability (EKVX; first compound 158.11 µM): 1.02
- relative viability (EKVX; first compound 500 µM): 0.952
- relative viability (HCC-827; first compound 5 µM): 0.878
- relative viability (HCC-827; first compound 15.81 µM): 0.906
- relative viability (HCC-827; first compound 50 µM): 0.843
- relative viability (HCC-827; first compound 158.11 µM): 0.412
- relative viability (HCC-827; first compound 500 µM): 0.225
- relative viability (LU99A; first compound 5 µM): 0.618
- relative viability (LU99A; first compound 15.81 µM): 0.546
- relative viability (LU99A; first compound 50 µM): 0.589
- relative viability (LU99A; first compound 158.11 µM): 0.168
- relative viability (LU99A; first compound 500 µM): 0.0638
- relative viability (SK-LU-1; first compound 5 µM): 1.03
- relative viability (SK-LU-1; first compound 15.81 µM): 0.902
- relative viability (SK-LU-1; first compound 50 µM): 0.644
- relative viability (SK-LU-1; first compound 158.11 µM): 0.167
- relative viability (SK-LU-1; first compound 500 µM): 0.104
- relative viability (LCLC-97TM1; first compound 5 µM): 0.465
- relative viability (LCLC-97TM1; first compound 15.81 µM): 0.516
- relative viability (LCLC-97TM1; first compound 50 µM): 0.379
- relative viability (LCLC-97TM1; first compound 158.11 µM): 0.11
- relative viability (LCLC-97TM1; first compound 500 µM): 0.0433
- relative viability (NCI-H661; first compound 15.81 µM): 1.03
- relative viability (NCI-H661; first compound 50 µM): 0.997
- relative viability (NCI-H661; first compound 158.11 µM): 1.15
- relative viability (NCI-H661; first compound 500 µM): 0.817
- relative viability (NCI-H1944; first compound 5 µM): 1.22
- relative viability (NCI-H1944; first compound 15.81 µM): 1.02
- relative viability (NCI-H1944; first compound 50 µM): 1.07
- relative viability (NCI-H1944; first compound 158.11 µM): 1.06
- relative viability (NCI-H1944; first compound 500 µM): 0.891
- relative viability (ChaGo-K-1; first compound 5 µM): 1.14
- relative viability (ChaGo-K-1; first compound 15.81 µM): 1.05
- relative viability (ChaGo-K-1; first compound 50 µM): 0.992
- relative viability (ChaGo-K-1; first compound 158.11 µM): 1.04
- relative viability (ChaGo-K-1; first compound 500 µM): 0.813
- relative viability (H3255; first compound 5 µM): 0.773
- relative viability (H3255; first compound 15.81 µM): 0.894
- relative viability (H3255; first compound 50 µM): 0.914
- relative viability (H3255; first compound 158.11 µM): 0.831
- relative viability (H3255; first compound 500 µM): 0.742
- relative viability (NCI-H441; first compound 5 µM): 0.685
- relative viability (NCI-H441; first compound 15.81 µM): 0.683
- relative viability (NCI-H441; first compound 50 µM): 0.635
- relative viability (NCI-H441; first compound 158.11 µM): 0.303
- relative viability (NCI-H441; first compound 500 µM): 0.343
- relative viability (NCI-H1792; first compound 5 µM): 0.937
- relative viability (NCI-H1792; first compound 15.81 µM): 0.909
- relative viability (NCI-H1792; first compound 50 µM): 0.914
- relative viability (NCI-H1792; first compound 158.11 µM): 0.91
- relative viability (NCI-H1792; first compound 500 µM): 0.753
- relative viability (NCI-H460; first compound 5 µM): 0.889
- relative viability (NCI-H460; first compound 15.81 µM): 0.892
- relative viability (NCI-H460; first compound 50 µM): 0.728
- relative viability (NCI-H460; first compound 158.11 µM): 0.115
- relative viability (NCI-H460; first compound 500 µM): 0.0085
- relative viability (LC-2-ad; first compound 5 µM): 0.444
- relative viability (LC-2-ad; first compound 15.81 µM): 0.432
- relative viability (LC-2-ad; first compound 50 µM): 0.417
- relative viability (LC-2-ad; first compound 158.11 µM): 0.529
- relative viability (LC-2-ad; first compound 500 µM): 0.51
- relative viability (NCI-H23; first compound 5 µM): 0.542
- relative viability (NCI-H23; first compound 15.81 µM): 0.563
- relative viability (NCI-H23; first compound 50 µM): 0.488
- relative viability (NCI-H23; first compound 158.11 µM): 0.189
- relative viability (NCI-H23; first compound 500 µM): 0.0618
- relative viability (NCI-H1437; first compound 5 µM): 0.96
- relative viability (NCI-H1437; first compound 15.81 µM): 0.794
- relative viability (NCI-H1437; first compound 50 µM): 0.857
- relative viability (NCI-H1437; first compound 158.11 µM): 0.229
- relative viability (NCI-H1437; first compound 500 µM): 0.0274
- relative viability (PC-3 [JPC-3]; first compound 5 µM): 0.977
- relative viability (PC-3 [JPC-3]; first compound 15.81 µM): 0.89
- relative viability (PC-3 [JPC-3]; first compound 50 µM): 0.889
- relative viability (PC-3 [JPC-3]; first compound 158.11 µM): 0.648
- relative viability (PC-3 [JPC-3]; first compound 500 µM): 0.324
- relative viability (HARA; first compound 5 µM): 1.04
- relative viability (HARA; first compound 15.81 µM): 1.09
- relative viability (HARA; first compound 50 µM): 1.02
- relative viability (HARA; first compound 158.11 µM): 0.397
- relative viability (HARA; first compound 500 µM): 0.247
- relative viability (NCI-H322M; first compound 5 µM): 0.917
- relative viability (NCI-H322M; first compound 15.81 µM): 0.917
- relative viability (NCI-H322M; first compound 50 µM): 1
- relative viability (NCI-H322M; first compound 158.11 µM): 0.996
- relative viability (NCI-H322M; first compound 500 µM): 1.01
